# Measurements published in ChEMBL document CHEMBL3228046, “A structural modification study of procarbazine” (1979).
# The source made the active and inactive calls. The rule behind the calls is not given here.
# How the values were obtained:
# [1] = tested on: KB; test: Antineoplastic activity against human KB cells; format: functional, cell-based
# [2] = tested on: P388; test: Antineoplastic activity against mouse P388 cells allografted in BDF1 mouse administered qd for 1 to 9 days starting 24 hrs after tumor cell implantation; format: functional, cell-based
# [3] = tested on: L1210; test: Antineoplastic activity against mouse L1210 cells allografted in BDF1 mouse administered qd for 1 to 9 days starting 24 hrs after tumor cell implantation; format: functional, cell-based
# [4] = tested on: P388; test: Antineoplastic activity against mouse P388 cells allografted in BDF1 mouse at 800 mg/kg administered qd for 1 to 9 days starting 24 hrs after tumor cell implantation relative to control; format: functional
# [5] = tested on: L1210; test: Antineoplastic activity against mouse L1210 cells allografted in BDF1 mouse at 50 mg/kg administered qd for 1 to 9 days starting 24 hrs after tumor cell implantation relative to control; format: functional
Compound,Activity [1],Activity [2],Activity [3],T/C [4],T/C [5]
CNNCc1ccc(/C=N/NC(N)=S)cc1,inactive,inactive,inactive,,
CNOCc1ccc(C(=O)NC(C)C)cc1,inactive,inactive,inactive,,
CC(C)NC(=O)c1ccc(CON(C)C(=O)OCc2ccccc2)cc1,inactive,inactive,inactive,,
CC(C)NC(=O)c1ccc(CONC(=O)OCc2ccccc2)cc1,inactive,inactive,inactive,,
CONCc1ccc(C(=O)NC(C)C)cc1,inactive,inactive,inactive,,
CC(C)NC(=O)c1ccc(C/[N+]([O-])=C/c2ccccc2)cc1,,,,153,
CNC(=O)Nc1ccc(C(=O)NC(C)C)cc1,,,,,132
CNC(=O)NCc1ccc(C(=O)NC(C)C)cc1,inactive,inactive,inactive,,
CNC(=S)NCc1ccc(C(=O)NC(C)C)cc1,inactive,inactive,inactive,,
CNC(=S)Nc1ccc(C(=O)NC(C)C)cc1,inactive,inactive,inactive,,
CO/[N+](=C\c1ccccc1)Cc1ccc(C(=O)NC(C)C)cc1,inactive,inactive,inactive,,
CC(C)NC(=O)c1ccc(CBr)cc1,Active,,,,
CNNCc1c[nH]c(=O)[nH]c1=O,inactive,inactive,inactive,,
